One test deals with β-Secretase (BACE-1) (Homo sapiens (Human), UniProt P56817). Nature of the test: β-Secretase (BACE-1) inhibition assay. It is filed as biochemical. The note with it: read-out: BACE-1 IC50. As for the experimental part: β-Secretase (BACE-1, Sigma) inhibition studies were performed by employing a peptide mimicking APP sequence as substrate (methoxycoumarin-[…]dinitrophenyl, M-2420, Bachem). The following procedure was employed: 5 μL of test compound (or DMSO, if preparing a control well) were pre-incubated with 175 μL of the enzyme (in 20 mM sodium acetate containing CHAPS 0.1% w/v) for 1 h at room temperature. The substrate (3 μM, final concentration) was then added and left to react for 15 min. The fluorescence signal was read at λem=405 nm (λexc=320 nm). […] The fluorescence intensities with and without inhibitor were compared and the percent inhibition due to the presence of test compounds was calculated. The background signal was measured in control wells containing all the reagents, except BACE-1 and subtracted. […] Inhibition curves were obtained by plotting the % inhibition versus the logarithm of inhibitor concentration in the assay sample. The linear regression parameters were determined and the IC50 extrapolated (GraphPad Prism 4.0, GraphPad Software Inc.).
Chain of β-Secretase (BACE-1) (P56817 46-501): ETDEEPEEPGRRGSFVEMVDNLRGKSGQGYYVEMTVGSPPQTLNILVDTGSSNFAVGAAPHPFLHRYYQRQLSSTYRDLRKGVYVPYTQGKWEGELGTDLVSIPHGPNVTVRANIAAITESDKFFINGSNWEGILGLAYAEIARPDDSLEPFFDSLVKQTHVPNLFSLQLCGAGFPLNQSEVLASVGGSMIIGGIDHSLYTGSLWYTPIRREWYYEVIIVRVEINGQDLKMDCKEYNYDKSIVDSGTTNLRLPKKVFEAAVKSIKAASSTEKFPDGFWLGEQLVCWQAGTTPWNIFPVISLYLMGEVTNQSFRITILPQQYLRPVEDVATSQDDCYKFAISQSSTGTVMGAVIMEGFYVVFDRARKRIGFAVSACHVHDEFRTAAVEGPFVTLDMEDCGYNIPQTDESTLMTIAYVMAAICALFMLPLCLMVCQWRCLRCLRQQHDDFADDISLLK

The next test addresses Aβ1-42 (Homo sapiens, UniProt P05067). Nature of the test: Aβ1-42 self-aggregation inhibition assay (thioflavin T). The note with it: inhibitor 10 μM, [Aβ]/[I]=5/1. It is filed as biochemical. How it is done:
As reported in a previously published protocol (cf. M. Bartolini et al., “Insight into the Kinetic of Amyloid Beta (1-42) Peptide Self-Aggregation: Elucidation of Inhibitors' Mechanism of Action. ChemBioChem 2007, vol. 8, pp. 2152-2161), HFIP pretreated Aβ1-42 samples (Bachem AG, Switzerland) were solubilized with a CH3CN/0.3 mM Na2CO3250 mM NaOH (48.4:48.4:3.2) mixture to obtain a 500 μM solution. Experiments were performed by incubating the peptide in 10 mM phosphate buffer (pH=8.0) containing 10 mM NaCl, at 30° C. for 24 h (final Aβ concentration 50 μM) with and without inhibitor (10 μM, Aβ/inhibitor=5/1). Blanks containing the tested inhibitors were also prepared and tested.

For test [1], the system named is hippocampal slices incubated with Aβ oligomers. As to the kind of experiment: Electrophysiology (LTP) in hippocampal slices incubated with Aβ oligomers. It is filed as cell-based, C57bl6 male mice. As for the experimental part: Hippocampal slices were prepared according to standard procedures previously described. Briefly, transverse slices (350 μm) from the dorsal hippocampus were cut under cold artificial cerebrospinal fluid (ACSF, in mM: 124 NaCl, […], 10 D-glucose, 2.69 KCl, 1.25 KH2PO4 2.5 CaCl2, 1.3 MgSO4, and 2.60 NaHPO4) using a Vibratome (Leica VT 1000 s, Germany) and incubated in ACSF for 1 h at room temperature. In all experiments, 10 μM picrotoxin (PTX) was added to suppress inhibitory GABAA transmission. Slices were transferred to an experimental chamber (2 mL), superfused (3 mL/min, at 20-22° C.) with gassed ACSF and visualized by trans-illumination with a binocular microscope (MSZ-10, Nikon, Melville, N.Y.). To evoke field excitatory postsynaptic potentials (fEPSPs), we stimulate with bipolar concentric electrodes (Platinum/Iridium, 125 μm OD diameter, FHC Inc., Bowdoin, Me.) generated by a stimulator (Axon 700b, Molecular Devices, Sunnyvale, Calif.) and connected to an isolation unit (Isoflex, AMPI, Jerusalem, Israel). The stimulation was in the Stratum Radiatum within 100-200 μm from the recording site. The paired pulse facilitation index was calculated by ((R2−R1)/R1), where R1 and R2 were the peak amplitudes of the first and second fEPSP respectively. To generate LTP we used Theta Burst Stimulation (TBS) consisting of 5 trains of stimulus with an inter-train interval of 20 s. Each train consisted of 10 bursts at 5 Hz and each burst having 4 pulses at 100 Hz. To generate LTD we used Low Frequency Stimulation (LFS) consisting in 900 paired pulses at 1 Hz. […] Evoked postsynaptic responses were analyzed off-line, using an analysis software (pClampfit, Molecular Devices), which allowed visual detection of events, computing only those events that exceeded and arbitrary threshold.
Electrophysiological registers of hippocampal slices of 2-month-old C57bl6 male mice were assessed to evaluate the synaptic transmission through the long-term potentiation (LTP). […] In FIG. 3B, the quantification at min 60 of fEPSP are shown. […]

Test [2] relates to APP-PS1 mice. As to the kind of experiment: Memory flexibility test (Morris water maze variant) in APP-PS1 mice. It is filed as in vivo, mouse.
Test [3] has as its system APP-PS1 mice. As to the kind of experiment: Electrophysiology (LTP) in hippocampal slices from treated APP-PS1 mice. The format is in vivo, mouse. The note with it: for LTP magnitude at 60 min: compared with untreated brain slices; for LTP generation (in words): slices from treated APP-PS1 mice.
Test [4] relates to APP-PS1 mice. As to the kind of experiment: Total load of brain amyloid deposits in APP-PS1 mice (Aβ 6E10 immunodetection). It is filed as in vivo, mouse.
For test [5], the system named is APP-PS1 mice. As to the kind of experiment: Senile plaques in APP-PS1 mice (Thioflavin-S staining). The format is in vivo, mouse.
The test system of test [6] is human recombinant AChE-induced Aβ1-40 aggregation. Nature of the test: AChE-induced Aβ1-40 aggregation inhibition assay (thioflavin T). The note with it: inhibitor 100 μM.
Experimental: Aβ1-40, supplied as trifluoroacetate salt, was purchased from Bachem AG (Germany). Aβ1-40 (2 mg mL^−1) was dissolved in HFIP, lyophilized, and then resolubilized in DMSO to get a 2.3 mM Aβ1-40 solution. 1 mM Solutions of tested inhibitors were prepared by dissolution in MeOH.
Aliquots of 2 μL Aβ1-40 peptide were incubated for 24 h at room temperature in 0.215 M sodium phosphate buffer (pH 8.0) at a final concentration of 230 μM. […] The final volume of each vial was 20 μL. Each assay was run in duplicate. To quantify amyloid fibril formation, the thioflavin T fluorescence method was then applied (cf. H. Naiki et al., “Kinetic Analysis of Amyloid Fibril Polymerization in Vitro”, Lab. Invest. 1991, vol. 65, pp. 104-110). The fluorescence intensities due to β-sheet conformation were monitored for 300 s at λem=490 nm (λexc=446 nm). The percent inhibition of the AChE-induced aggregation due to the presence of the tested compound was calculated by the following expression: 100−(IFi/IFo×100) where IFi and IFe are the fluorescence intensities obtained for Aβ plus AChE in the presence and in the absence of inhibitor, respectively, minus the fluorescence intensities due to the respective blanks.
The mark [7] stands for this setting: slices with Aβ oligomers, FIG. 3A.
Where [8] appears, read: 7-month-old APP-PS1 mice, FIG. 7A.
Setting [9] is: 11-month-old APP-PS1 mice, FIG. 7B.
The mark [10] stands for this setting: 7-month-old APP-PS1 mice, FIG. 8.
Setting [11] is: 11-month-old APP-PS1 mice, FIG. 8B.

The structures appear in SMILES notation. Structures can show the parent of a compound that is named as a salt. Where two headings read alike, the source gives them in different places.

The term IC50 denotes the concentration at which inhibition is half-maximal.

On to `CC1=C[C@H]2Cc3nc4cc(Cl)ccc4c(NCCCCCCCCCNC(=O)c4cc(O)c5c(c4)C(=O)c4cccc(O)c4C5=O)c3[C@@H](C1)C2` [(+)-(Ib)•HCl, (+)-(7R,11R)—N-{9-[(3-chloro-6,7,10,11-tetrahydro-9-methyl-7,11-methanocycloocta[b]quinolin-12-yl)amino]nonyl}-9,10-dihydro-4,5-dihydroxy-9,10-dioxoanthracene-2-carboxamide], for which the IC50 at β-Secretase (BACE-1) came to 80 ± 10 nM. Moreover, the IC50 on β-Secretase (BACE-1) (stated in text) is 80 nM. Moreover, the “Aβ1-42 self-induced aggregation (%)” value at Aβ1-42 amounted to 38.4 ± 5.5%. In addition, the “fEPSP magnitude response at min 60” value in test [1] (compared to slices treated with Aβ oligomers, FIG. 3B) was found to be 200%. The LTP induction in test [1] (setting [7]) stood at 200%. For the same compound, the “number of trials to reach criteria” value in the test on APP-PS1 mice [2] (7-month-old APP-PS1 mice, i.p. three times per week for 4 weeks, untreated about 12-13 trials) amounted to 7 trials. Further, the “cognitive behavior in memory flexibility test (in words)” value in the test on APP-PS1 mice [2] (11-month-old APP-PS1 mice) is “took less trials to reach learning criteria”. For the same compound, in the test with APP-PS1 mice [3], the “LTP magnitude at 60 min” value is listed as 150% and the “LTP generation (in words)” value is on record as “able to generate LTP”. Further, in the test with APP-PS1 mice [4] (setting [8]), the “Aβ load, hippocampus” value is “diminished the load levels of Aβ oligomers” and the “Aβ-positive aggregate area, brain cortex” value is recorded as “significant reduction”. In addition, in the test with APP-PS1 mice [4] (setting [9]), the “total Aβ load, cortex” value is “reduction in total Aβ load” and the “total Aβ load, hippocampus” value was “reduction in total load of Aβ”. In addition, in the test on APP-PS1 mice [5] (setting [10]), the “Th-S amyloid aggregates, hippocampal region” value was “reduction in the amyloid aggregates” and the “Th-S positive area, cortex” value is recorded as “significant reduction in the Th-S positive area”. In the test with APP-PS1 mice [5] (setting [11]), the “Th-S amyloid deposits, cortex” value is on record as “reduction in amyloid deposits” and the “Th-S amyloid deposits, hippocampus” value was “reduction in amyloid deposits”. For the same compound, in test [6], the “AChE-induced Aβ1-40 aggregation (%)” value is listed as 36.9 ± 3.4%.

For the compound `CC1=C[C@@H]2Cc3nc4cc(Cl)ccc4c(NCCCCCCCCCNC(=O)c4cc(O)c5c(c4)C(=O)c4cccc(O)c4C5=O)c3[C@H](C1)C2` [(−)-(Ib)•HCl, (−)-(7S,11S)—N-{9-[(3-chloro-6,7,10,11-tetrahydro-9-methyl-7,11-methanocycloocta[b]quinolin-12-yl)amino]nonyl}-9,10-dihydro-4,5-dihydroxy-9,10-dioxoanthracene-2-carboxamide], the IC50 turned out to be 80 ± 10 nM at β-Secretase (BACE-1) and 80 nM at β-Secretase (BACE-1) (stated in text). The “Aβ1-42 self-induced aggregation (%)” value at Aβ1-42 was found to be 43.2 ± 4.7%. Besides, the “LTP induction (in words)” value in test [1] (setting [7]) is “no LTP induction”. For the same compound, the “cognitive behavior in memory flexibility test (in words)” value in the test on APP-PS1 mice [2] (7-month-old APP-PS1 mice) is “improved behavior within days”; in the test on APP-PS1 mice [2] (11-month-old APP-PS1 mice), “no significant change”. Besides, the “LTP magnitude at 60 min” value with APP-PS1 mice [3] was found to be 150%. The “LTP generation (in words)” value in the test with APP-PS1 mice [3] is listed as “able to generate LTP”. The “Aβ-positive aggregate area, brain cortex” value with APP-PS1 mice [4] (setting [8]) was “significant reduction”. In addition, the “total Aβ load, cortex” value with APP-PS1 mice [4] (setting [9]) is on record as “reduction in total Aβ load”. Further, the “Th-S positive area, cortex” value in the test with APP-PS1 mice [5] (setting [10]) was “significant reduction in the Th-S positive area”. For the same compound, in test [6], the “AChE-induced Aβ1-40 aggregation (%)” value is reported as 38.1 ± 0.7%.

The values are drawn from patent US9238626B2 (priority 2012, dated 2016).
